Measured values as given in US20150030540A1 (Eli Lilly and Company, priority 2008, published 2015).

Experiments:
MAO-B = target: T1, MAO-B (Homo sapiens, UniProt P27338); assay: MAO inhibition, MAO-B; type: biochemical
T1 sequence (P27338 1-520): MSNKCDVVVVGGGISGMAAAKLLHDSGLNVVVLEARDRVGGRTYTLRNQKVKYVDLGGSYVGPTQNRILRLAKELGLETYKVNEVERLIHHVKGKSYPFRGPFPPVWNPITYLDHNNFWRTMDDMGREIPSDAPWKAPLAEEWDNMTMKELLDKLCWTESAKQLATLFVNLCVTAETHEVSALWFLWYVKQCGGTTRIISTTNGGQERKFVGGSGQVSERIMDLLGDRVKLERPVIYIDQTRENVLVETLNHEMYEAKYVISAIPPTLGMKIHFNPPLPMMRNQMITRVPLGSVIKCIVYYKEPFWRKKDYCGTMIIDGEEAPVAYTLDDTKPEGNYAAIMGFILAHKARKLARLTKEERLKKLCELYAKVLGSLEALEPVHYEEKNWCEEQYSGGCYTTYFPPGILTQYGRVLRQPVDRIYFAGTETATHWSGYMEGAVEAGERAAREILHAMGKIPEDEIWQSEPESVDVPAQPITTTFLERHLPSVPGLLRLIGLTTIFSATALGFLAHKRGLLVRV

Monoamine transp. = assay: CNS selectivity panel: Monoamine transp.; type: binding; details: 1 uM
MAO-A = target: T2, MAO-A (Homo sapiens, UniProt P21397); assay: MAO inhibition, MAO-A; type: biochemical
T2 sequence (P21397 1-527): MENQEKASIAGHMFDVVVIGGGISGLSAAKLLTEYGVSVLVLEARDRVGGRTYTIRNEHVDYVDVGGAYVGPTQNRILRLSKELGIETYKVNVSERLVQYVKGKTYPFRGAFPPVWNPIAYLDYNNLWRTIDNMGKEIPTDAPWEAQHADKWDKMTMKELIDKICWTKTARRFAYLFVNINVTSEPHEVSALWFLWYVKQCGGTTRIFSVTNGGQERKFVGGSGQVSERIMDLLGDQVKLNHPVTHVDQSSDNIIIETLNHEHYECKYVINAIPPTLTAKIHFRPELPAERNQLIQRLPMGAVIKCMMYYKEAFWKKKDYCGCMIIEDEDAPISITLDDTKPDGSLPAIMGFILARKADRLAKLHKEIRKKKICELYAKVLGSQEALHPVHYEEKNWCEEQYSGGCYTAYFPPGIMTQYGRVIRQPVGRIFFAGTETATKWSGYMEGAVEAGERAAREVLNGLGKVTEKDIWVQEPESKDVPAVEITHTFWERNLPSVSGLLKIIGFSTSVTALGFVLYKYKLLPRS

Norepinephrine transp. = Norepinephrine transp. (Homo sapiens, UniProt P23975); assay: CNS selectivity panel: Norepinephrine transp.; type: binding; details: 1 uM
Chain of Norepinephrine transp. (P23975 whole entry): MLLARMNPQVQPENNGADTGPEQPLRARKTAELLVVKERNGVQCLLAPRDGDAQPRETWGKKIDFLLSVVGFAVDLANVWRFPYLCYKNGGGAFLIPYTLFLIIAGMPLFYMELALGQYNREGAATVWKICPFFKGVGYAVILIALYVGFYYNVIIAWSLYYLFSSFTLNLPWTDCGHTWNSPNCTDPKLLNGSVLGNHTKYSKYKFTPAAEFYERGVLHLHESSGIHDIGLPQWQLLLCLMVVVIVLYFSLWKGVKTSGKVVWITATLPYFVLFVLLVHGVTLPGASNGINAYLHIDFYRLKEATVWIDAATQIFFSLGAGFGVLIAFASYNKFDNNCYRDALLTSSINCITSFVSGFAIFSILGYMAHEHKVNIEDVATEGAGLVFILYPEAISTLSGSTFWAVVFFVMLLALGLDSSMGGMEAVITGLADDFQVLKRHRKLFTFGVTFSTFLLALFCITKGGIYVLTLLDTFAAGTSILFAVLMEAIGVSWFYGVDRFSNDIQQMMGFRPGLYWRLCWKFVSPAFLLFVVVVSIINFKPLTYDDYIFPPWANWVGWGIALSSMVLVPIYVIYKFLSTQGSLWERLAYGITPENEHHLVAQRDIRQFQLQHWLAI

[1] = background in normal brain; type: binding
Excerpt: (§1) Furthermore, the selectivity can be evaluated in brains containing only Aβ plaques/no tau aggregates, Aβ plaques/and tau aggregates, and control brains. Unfortunately, there are no AD brains with only tau and no Aβ present. By testing radiolabeled tracers in these brain sections, one can more quantitative evaluate the relative binding strength (signal strength) and selectivity of various test compounds as they all contain the same radioactive tracer. For examples, if a test tracer binds only to tau, and not amyloid, it should show no signal in the Aβ plaques only brain sections. If a compound binds only to amyloid, it should show uptake in both types of brains. The difficulty of identifying and further quantifying selective compounds lies in the relative abundance of amyloid vs. tau, which is difficult to measure.

AchE = AchE (Homo sapiens, UniProt P22303); assay: AchE activity (IC50); type: biochemical
Chain of AchE (P22303 32-614): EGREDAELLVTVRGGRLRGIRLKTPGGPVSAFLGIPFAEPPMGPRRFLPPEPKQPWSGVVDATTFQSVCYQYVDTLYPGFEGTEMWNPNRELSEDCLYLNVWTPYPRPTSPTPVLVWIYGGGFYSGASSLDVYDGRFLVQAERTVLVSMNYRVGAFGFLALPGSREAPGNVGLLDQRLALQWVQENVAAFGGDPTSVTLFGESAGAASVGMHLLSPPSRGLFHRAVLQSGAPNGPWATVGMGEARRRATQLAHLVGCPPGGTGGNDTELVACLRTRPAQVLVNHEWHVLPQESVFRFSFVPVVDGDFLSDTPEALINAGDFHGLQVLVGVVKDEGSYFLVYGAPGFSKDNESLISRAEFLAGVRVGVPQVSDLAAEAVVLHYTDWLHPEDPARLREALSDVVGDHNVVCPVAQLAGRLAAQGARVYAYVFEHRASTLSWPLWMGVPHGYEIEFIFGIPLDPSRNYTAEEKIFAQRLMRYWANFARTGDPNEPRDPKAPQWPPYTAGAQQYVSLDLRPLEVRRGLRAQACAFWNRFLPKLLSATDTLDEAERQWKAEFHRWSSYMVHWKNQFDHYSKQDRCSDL

Serotonin 5-HT2c = target: T3, Serotonin 5-HT2c (Homo sapiens, UniProt P28335); assay: CNS selectivity panel: Serotonin 5-HT2c; type: binding; details: 1 uM
T3 sequence (P28335 33-458): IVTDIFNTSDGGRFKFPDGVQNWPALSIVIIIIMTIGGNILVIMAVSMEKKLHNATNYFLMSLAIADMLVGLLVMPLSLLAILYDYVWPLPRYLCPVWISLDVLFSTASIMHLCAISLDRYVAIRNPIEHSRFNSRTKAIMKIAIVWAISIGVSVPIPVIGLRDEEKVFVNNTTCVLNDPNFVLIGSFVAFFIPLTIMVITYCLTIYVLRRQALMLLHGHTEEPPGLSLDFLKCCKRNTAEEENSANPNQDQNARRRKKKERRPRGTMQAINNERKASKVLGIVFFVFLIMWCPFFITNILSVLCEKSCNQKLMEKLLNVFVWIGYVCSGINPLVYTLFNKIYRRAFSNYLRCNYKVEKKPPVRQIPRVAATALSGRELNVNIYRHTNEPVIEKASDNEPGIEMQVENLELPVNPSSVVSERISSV

Dopamine transp. = Dopamine transp. (Homo sapiens, UniProt Q01959); assay: CNS selectivity panel: Dopamine transp.; type: binding; details: 1 uM
Chain of Dopamine transp. (Q01959 whole entry): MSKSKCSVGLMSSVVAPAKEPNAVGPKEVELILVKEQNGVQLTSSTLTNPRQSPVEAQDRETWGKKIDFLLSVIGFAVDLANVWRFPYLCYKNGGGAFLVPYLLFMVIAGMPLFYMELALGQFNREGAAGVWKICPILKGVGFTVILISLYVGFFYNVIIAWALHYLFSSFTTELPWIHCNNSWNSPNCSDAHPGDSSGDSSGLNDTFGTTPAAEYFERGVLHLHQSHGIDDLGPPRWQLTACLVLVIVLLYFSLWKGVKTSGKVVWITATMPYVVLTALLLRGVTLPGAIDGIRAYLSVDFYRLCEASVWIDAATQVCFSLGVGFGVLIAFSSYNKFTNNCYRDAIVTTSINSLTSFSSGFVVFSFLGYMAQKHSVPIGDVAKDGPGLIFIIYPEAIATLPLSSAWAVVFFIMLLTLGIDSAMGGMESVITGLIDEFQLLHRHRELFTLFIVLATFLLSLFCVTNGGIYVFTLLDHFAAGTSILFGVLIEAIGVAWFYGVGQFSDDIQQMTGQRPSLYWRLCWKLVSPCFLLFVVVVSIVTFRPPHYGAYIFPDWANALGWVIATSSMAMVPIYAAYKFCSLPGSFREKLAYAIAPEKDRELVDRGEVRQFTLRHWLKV

tau/Ab = assay: selectivity (tau/Ab); type: binding
Excerpt: as §1

tau = target: T4, tau (Homo sapiens, UniProt P10636); assay: KD (tau) binding; details: FIG. 2 legend, [18F] tracer; read-out: KD
T4 construct: Native forms of tau (various isoforms, hyperphosphorylated) and amyloid aggregates are present in brain sections and therefore preferred for compound testing
T4 sequence (P10636 623-758 limits assumed): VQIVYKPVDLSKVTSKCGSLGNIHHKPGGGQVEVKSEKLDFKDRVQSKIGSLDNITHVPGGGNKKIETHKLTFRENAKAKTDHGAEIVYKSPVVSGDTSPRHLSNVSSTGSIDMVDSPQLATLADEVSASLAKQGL
Excerpt: (§2) When injected intravenously into mice, the Carbazole based compounds; in particular T807, T805 and T794 have shown excellent brain uptake. These compounds also display high binding affinity to tau fibrils. […] In neuropathological staining, compounds of the present invention stained amyloid plaques and/or tau aggregates.
as §1

Glutamate, NMDA = assay: CNS selectivity panel: Glutamate, NMDA; type: binding; details: 1 uM
human hepatocytes = assay: Metabolism in human hepatocytes; type: in vitro ADME
[2] = GM Intensity (comp. with W372); type: binding; details: compared with W372
[3] = Brain uptake in rats and mice; type: in vivo
[4] = Brain uptake after intravenous injection into mice; type: in vivo; details: injected intravenously into mice
Excerpt: as §2

tau/amyloid = assay: Tx/tau/amyloid correlation; type: binding

FCCCc1ccc2c(c1)[nH]c1ccncc12 [T794, 7-(3-Fluoropropyl)-5H-pyrido[4,3-b]indole]
inhibition at 1 µM (MAO-B): 0%
CNS selectivity panel: Monoamine transp. (Monoamine transp.): transp. (41%)
inhibition at 1 µM (MAO-A): 19%
CNS selectivity panel: Norepinephrine transp. (Norepinephrine transp.): transp.(49%)
background (normal brain 32566) PSL/mm2 [1]: 97 PSL/mm2
IC50 (AchE): 5000 nM
CNS selectivity panel: Serotonin 5-HT2c (Serotonin 5-HT2c): (33%)
CNS selectivity panel: Dopamine transp. (Dopamine transp.): transp.(34%)
selectivity (tau/Ab) (tau/Ab): 17x
Kd (tau): 30 nM
CNS selectivity panel: Glutamate, NMDA (Glutamate, NMDA): (44%) Monoamine
human hepatocytes (metabolic stability) (human hepatocytes): stable
GM Intensity (comp. with W372) [2]: 14%
Brain uptake [3]: yes (4 rats, 4 mice)
Brain uptake [4]: excellent
Tx/tau/amyloid correlation (tau/amyloid): yes
